In patent publication US20090012326A1 (priority 2006, published 2009):
“Also recorded” adds a separate entry of the source.

Key:
[1] = cited from earlier work
[2] = system: Wistar rats intoxicated with PQ
Description: The study was performed using (n=84) adults male Wistar rats obtained from Charles River S. A. (Barcelona, Spain), with a mean weight of 250±10 g. Animals were randomly distributed in number of two per polypropylene cages with a stainless steel net at the top and wood chips at the screen bottom, in a air-conditioned room (alternate cycles of 12 hours light and darkness, room temperature 22±2° C. and with a relative humidity of 50-60%) at least one week (quarantine) before starting the experience in order to acclimate to their surrounding conditions. Animals were allowed access to tap water and rat chow ad libitum during the quarantine period. Housing and experimental treatment of animals were in accordance with National Institutes of Health guidelines (ILAR 1996). The experiments complied with the current laws of Portugal.
(§1) The biochemical and histological studies were carried out with 60 animals, randomly distributed to ten groups. Each animal was individually housed during the experimental period in a polypropylene cage with a stainless steel net at the top and wood chips at the screen bottom. Tap water and rat chow were given ad libitum during the entire experiment. […] Each group was treated as follows: (doses were given per Kg/body weight):
For the evaluation of survival rate, 24 animals were randomly divided into four groups (control, NaSAL, PQ and PQ+NaSAL) of six animals each. […]

[3] = system: lung tissue of Wistar rats; details: rat, in vivo
Description: as §1
(I) Control group, n=6: animals treated with 0.9% NaCl. Animals were treated with one more administration of 0.9% NaCl two hours later and sacrificed 24 hours after the second injection;
(II) NaSAL group, n=18: animals treated with 0.9% NaCl. Animals were treated with one administration of NaSAL (200 mg/kg) two hours later and sacrificed 24 hours (n=6, NaSAL 24 h group), 48 hours (n=6, NaSAL 48 h group) and 96 hours (n=6, NaSAL 96 h group) after the second injection;
(III) PQ group, n=18: animals intoxicated with PQ (25 mg/kg). Animals were treated with one more administration of 0.9% NaCl two hours later and sacrificed 24 hours (n=6, PQ 24 h group), 48 hours (n=6, PQ 48 h group) and 96 hours (n=6, PQ 96 h group) after the second injection;
(IV) PQ+NaSAL group, n=18: animals intoxicated with PQ (25 mg/kg). Two hours later, animals were treated with NaSAL (200 mg/kg) and sacrificed 24 hours (n=6, PQ+NaSAL 24 h group), 48 hours (n=6, PQ+NaSAL 48 h group) and 96 hours (n=6, PQ+NaSAL 96 h group) after the second injection.
Two animals of each group were assigned to histological analysis. Lung samples were subjected to routine procedures for light microscopy (LM) and transmission electron microscopy (TEM) analysis. With the animals under anaesthesia, lung fixation was initiated in situ by perfusion through pulmonary artery, with 2.5% glutaraldehyde in 0.2 M sodium cacodylate buffer (pH 7.2-7.4) during 3 min. Subsequently, lungs were excised and sectioned into approximately 1 mm^3 cubic pieces. After two washing steps, of 30 minutes each with buffer solution, the specimens were dehydrated in graded alcohol for 2 hours, and then embedded in Epon resin. […]

## CC(=O)Oc1ccccc1C(=O)O [acetylsalicylic acid]
[1]; 30 minutes after a dose of 0.65 g
  share of the total plasma salicylate in the acetylated form: 27%
[1]; in vivo
  plasma half-life: about 15 min

## C[n+]1ccc(-c2cc[n+](C)cc2)cc1.[Cl-].[Cl-] [paraquat, 1,1′-dimethyl-4,4′-bipyridinium dichloride]
[2]; intraperitoneal PQ dose, absence of treatment, at the end of 6 days
  lethality: 100%
[3]
  lung structure (light and electron micrographs): a marked vascular congestion and a notorious generalized alveolar collapse; also recorded: areas of necrosis of the alveolar wall and macrophages, cellular debris and inflammatory infiltrate within the alveolar space; also recorded: an intense vascular congestion as well as the presence of cellular debris and phagocytes within the alveolar space

## O=C([O-])c1ccccc1O.[Na+] [sodium salicylate, 2-hydroxybenzoic acid sodium salt]
[2]; PQ 25 mg/Kg i.p., sodium salicylate 200 mg/Kg i.p. two hours after PQ, 30 days after PQ
  survival: 100%
